≈ marks a conversion by molar mass, not a printed value. Where “and” joins values, the source holds several entries; their conditions need not be identical. Equal values may be shown once.
How the values were obtained:
[1] = Fold increase in MIC relative to tiacumicin B (API mixture profile table); type: cell-based
[2] = tested on: Eubacterium lentum (43055); test: MIC, CLSI agar dilution, different lots of media (QC organism); type: cell-based; conditions: Eggerthella lenta
From the text: (§1) Laboratory strains of Clostridium difficile 9689, 700057, 43255, 17857 and Eubacterium lentum 43055 were obtained from American Type Culture Collection (ATCC). […] Broth dilution is not a validated method for MIC testing of Clostridium; however, due to potential inaccuracy of measuring the pH of solid agar after equilibration inside the anaerobic chamber, both methods were used and compared for the assessment of pH effects.

C. difficile strains [3] = test: MIC, agar dilution, statements for C. difficile strains together; type: cell-based, Clostridium difficile
From the text: (§2) Laboratory strains of Clostridium difficile 9689, 700057, 43255, 17857 and Eubacterium lentum 43055 were obtained from American Type Culture Collection (ATCC). […] Broth dilution is not a validated method for MIC testing of Clostridium; however, due to potential inaccuracy of measuring the pH of solid agar after equilibration inside the anaerobic chamber, both methods were used and compared for the assessment of pH effects. […] Even with strong buffering, the pH shifted slightly following equilibration in the anaerobic gas, and thus in some cases media was titered in ambient air to above the desired anaerobic pH. The actual pH was always confirmed following equilibration inside the anaerobic chamber. […] The level of divalent cations in the Brucella broth as acquired from the manufacturer were determined by the Laboratory Specialists, Inc.

C. difficile ATCC 700057 [4] = test: MIC, CLSI agar dilution; type: cell-based, Clostridium difficile
From the text: as §2

C. difficile ATCC 9689 [5] = test: MIC, CLSI agar dilution; type: cell-based, Clostridium difficile; conditions: for MIC: Clostridioides difficile, different lots of media
From the text: as §2

C. difficile ATCC 700057 [6] = test: MIC, broth microdilution (pH effect); type: cell-based, Clostridium difficile; conditions: in µg/mL
C. difficile strains [7] = test: MIC, broth microdilution, statements for both C. difficile strains; type: cell-based, Clostridium difficile; conditions: all three experiments
Bacteroides group = test: Quantitative stool cultures of Phase 2A patients, Bacteroides group counts; type: in vivo, human
C. difficile = test: Quantitative stool cultures of Phase 2A patients, C. difficile counts; type: in vivo, human; conditions: all patients except one receiving 50 mg; 50, 100 or 200 mg twice daily for 10 days (vancomycin 125 mg qid)
C. difficile ATCC 9689 [8] = test: MIC, broth microdilution (pH effect); type: cell-based, Clostridium difficile; conditions: in µg/mL
C. difficile (43255) = test: MIC, CLSI agar dilution, different lots of media; type: cell-based, Clostridium difficile; conditions: for MIC: Clostridioides difficile
From the text: as §1

C. difficile (17857) = test: MIC, CLSI agar dilution, different lots of media; type: cell-based, Clostridium difficile; conditions: Clostridioides difficile
From the text: as §1

[9] = anaerobic pH 7, 100 mM NaH2PO4, pH 7.2 (Air)
[10] = anaerobic pH 6.7, 10 mM NaH2PO4 pH 7.0 (air)
[11] = anaerobic pH 6.8, 100 mM NaH2PO4 pH 7.0 (Air)
[12] = anaerobic pH 7.2, 10 mM MOPS pH 8.0 (Air)
[13] = anaerobic pH 7.5, 100 mM MOPS pH 8.0 (Air)
[14] = anaerobic pH 7.6, 10 mM TAPS pH 9.0 (Air)
[15] = anaerobic pH 8, 100 mM TAPS pH 9.0 (Air)
[16] = anaerobic pH 8.1, 100 mM TAPS pH 9.5 (Air)
[17] = strongly buffered series, anaerobic pH 6, pH 6.0 (Air)
[18] = unbuffered media, anaerobic pH 5.9
[19] = unbuffered media, anaerobic pH 6.6
[20] = unbuffered media, anaerobic pH 7.1
[21] = unbuffered media, anaerobic pH 7.5
[22] = weakly buffered series, anaerobic pH 6, pH 6.0 (Air)

## CCc1c(Cl)c(O)c(Cl)c(O)c1C(=O)O[C@H]1[C@H](O)[C@H](OC)[C@H](OC/C2=C\C=C\C[C@H](O)/C(C)=C/[C@H](CC)[C@@H](O[C@@H]3OC(C)(C)[C@@H](OC(=O)C(C)C)[C@H](O)[C@@H]3O)/C(C)=C/C(C)=C/C[C@@H](C(C)O)OC2=O)O[C@@H]1C (some centres unmarked) [OP-1441, tiacumicin B]
[1]
  fold increased in MIC relative to tiacumicn B: 1x

## CCc1c(Cl)c(O)c(Cl)c(O)c1C(=O)OC1C(C)OC(OC/C2=C/C=C/CC(O)/C(C)=C/C(CC)C(OC3OC(C)(C)C(O)C(O)C3OC(=O)C(C)C)/C(C)=C/C(C)=C/CC(C(C)O)OC2=O)C(OC)C1O (centres unmarked) [OP-1432, tiacumicin C]
[1]
  fold increased in MIC relative to tiacumicn B: 8-16x

## Cc1ncc([N+](=O)[O-])n1CCO [Metronidazole, metronidazole]
[2]; 24 h, Day 1
  MIC: 1 µg/mL (≈ 5.84 µM)
[2]; 48 h, Day 2
  MIC: 0.25 µg/mL (≈ 1.46 µM)
[2]; 72 h, Day 3
  MIC: 1 µg/mL (≈ 5.84 µM)
C. difficile strains [3]; control vs. C. difficile strains
  MIC values range in our laboratory: 0.25 to 0.5 µg/mL

## CCC1/C=C(\C)C(O)C/C=C/C=C(\COC2OC(C)C(OC(=O)c3c(C)c(Cl)c(O)c(Cl)c3O)C(O)C2OC)C(=O)CC(C(C)O)C/C=C(C)/C=C(\C)C1OC1OC(C)(C)C(OC(=O)C(C)C)C(O)C1O (centres unmarked) [OP-1405, lipiarmycin A4]
[1]
  fold increased in MIC relative to tiacumicn B: 1-4x

## CCc1c(Cl)c(O)c(Cl)c(O)c1C(=O)OC1C(C)OC(OC/C2=C\C=C\CC(O)/C(C)=C/C(CC)C(OC3OC(C)(C)C(OC(=O)CC(C)C)C(O)C3O)/C(C)=C/C(C)=C/CC(C(C)O)OC2=O)C(OC)C1O (centres unmarked) [OP-1437]
[1]
  fold increased in MIC relative to tiacumicn B: 2x

## CN[C@H](CC(C)C)C(=O)N[C@H]1C(=O)N[C@@H](CC(N)=O)C(=O)N[C@H]2C(=O)N[C@H]3C(=O)N[C@H](C(=O)N[C@H](C(=O)O)c4cc(O)cc(O)c4-c4cc3ccc4O)[C@H](O)c3ccc(c(Cl)c3)Oc3cc2cc(c3O[C@@H]2O[C@H](CO)[C@@H](O)[C@H](O)[C@H]2O[C@H]2C[C@](C)(N)[C@H](O)[C@H](C)O2)Oc2ccc(cc2Cl)[C@H]1O [Vancomycin, vancomycin]
C. difficile ATCC 700057 [4]; agar dilution, inoculum density 1.48 × 10^8 cfu/ml, 1.48 × 10^5
  In vitro activity (MIC): 2 µg/mL
C. difficile ATCC 700057 [4]; [9]
  agar dilution MIC: 4
C. difficile ATCC 700057 [4]; pH 6.7, unbuffered column
  agar dilution MIC: 2 (pH 6.7)
C. difficile ATCC 9689 [5]; [9]
  agar dilution MIC: 4
C. difficile ATCC 9689 [5]; pH 6.7, unbuffered column
  agar dilution MIC: 1 (pH 6.7)
C. difficile ATCC 700057 [6]; [10]
  MIC: 1
C. difficile ATCC 700057 [6]; [11]
  MIC: 2
C. difficile ATCC 700057 [6]; [12]
  MIC: 2
C. difficile ATCC 700057 [6]; [13]
  MIC: 4
C. difficile ATCC 700057 [6]; [14]
  MIC: 4
C. difficile ATCC 700057 [6]; [15]
  MIC: 8
C. difficile ATCC 700057 [6]; [16]
  MIC: 8
C. difficile ATCC 700057 [6]; [17]
  MIC: 1
C. difficile ATCC 700057 [6]; [18]
  MIC: 0.5
C. difficile ATCC 700057 [6]; [19]
  MIC: 1
C. difficile ATCC 700057 [6]; [20]
  MIC: 1 and 2
C. difficile ATCC 700057 [6]; [21]
  MIC: 2 and 4
C. difficile ATCC 700057 [6]; [22]
  MIC: 0.5
C. difficile strains [7]
  MIC at highest pH treatment relative to lowest pH treatment: 4-8 fold
Bacteroides group; 125 mg qid for 10 days
  Effect on Bacteroides counts during therapy: severely impairs Bacteroides counts
Bacteroides group; Day 0, 125 mg qid (n = 7)
  Bacteroides group counts/gm feces wet weight, mean ± SD: 7.39 ± 2.67 log10 CFU
C. difficile strains [3]; 10^5-10^8 cfu/ml (10^2-10^5 CFU/spot), ATCC 9689 and ATCC 700057, highest over lowest inoculum density
  Effect of inoculum density on MIC: fourfold increase in MIC
C. difficile
  C. difficile quantitative counts at day 10: similarly effective
C. difficile ATCC 9689 [8]; [10]
  MIC: 1
C. difficile ATCC 9689 [8]; [11]
  MIC: 1 and 2
C. difficile ATCC 9689 [8]; [12]
  MIC: 2
C. difficile ATCC 9689 [8]; [13]
  MIC: 4
C. difficile ATCC 9689 [8]; [14]
  MIC: 4
C. difficile ATCC 9689 [8]; [15]
  MIC: >8
C. difficile ATCC 9689 [8]; [16]
  MIC: >8
C. difficile ATCC 9689 [8]; [17]
  MIC: 1 and 0.5
C. difficile ATCC 9689 [8]; [18]
  MIC: 0.5 and 1
C. difficile ATCC 9689 [8]; [19]
  MIC: 0.5 and 1
C. difficile ATCC 9689 [8]; [20]
  MIC: 2
C. difficile ATCC 9689 [8]; [21]
  MIC: 4
C. difficile ATCC 9689 [8]; [22]
  MIC: 0.5

## CCc1c(Cl)c(O)c(Cl)c(O)c1C(=O)OC1C(C)OC(OC/C2=C\C=C\CC(O)/C(C)=C/C(CC)C(OC3OC(C)(C)C(OC(C)=O)C(O)C3O)/C(C)=C/C(C)=C/CC(C(C)O)OC2=O)C(OC)C1O (centres unmarked) [OP-1416]
[1]
  fold increased in MIC relative to tiacumicn B: 2-4x

## CCC[C@@H]1C[C@@H](C(=O)N[C@@H]([C@H]2O[C@H](SC)[C@H](O)[C@@H](O)[C@H]2O)[C@H](C)Cl)N(C)C1 [Clindamycin, clindamycin]
C. difficile ATCC 9689 [5]; ATCC9689, 24 h, Day 1
  MIC: 4 µg/mL (≈ 9.41 µM)
C. difficile ATCC 9689 [5]; ATCC9689, 48 h, Day 2
  MIC: 4 µg/mL (≈ 9.41 µM)
C. difficile ATCC 9689 [5]; ATCC9689, 72 h, Day 3
  MIC: 4 µg/mL (≈ 9.41 µM)
C. difficile (43255); 24 h, Day 1
  MIC: 8 µg/mL (≈ 18.8 µM)
C. difficile (43255); 48 h, Day 2
  MIC: 4 µg/mL (≈ 9.41 µM)
C. difficile (43255); 72 h, Day 3
  MIC: 8 µg/mL (≈ 18.8 µM)
C. difficile (43255); Day 2
  MIC values: 8 µg/mL (≈ 18.8 µM)
C. difficile (17857); 24 h, Day 1
  MIC: 4 µg/mL (≈ 9.41 µM)
C. difficile (17857); 48 h, Day 2
  MIC: 2 µg/mL (≈ 4.71 µM)
C. difficile (17857); 72 h, Day 3
  MIC: 4 µg/mL (≈ 9.41 µM)
[2]; 24 h, Day 1
  MIC: 0.25 µg/mL (≈ 0.588 µM)
[2]; 48 h, Day 2
  MIC: 0.25 µg/mL (≈ 0.588 µM)
[2]; 72 h, Day 3
  MIC: 0.125 µg/mL (≈ 0.294 µM)

## CCC(=O)OC1C(O)C(O)C(OC2/C(C)=C/C(C)=C/CC(C(C)O)OC(=O)/C(COC3OC(C)C(OC(=O)c4c(O)c(Cl)c(O)c(Cl)c4CC)C(O)C3OC)=C/C=C/CC(O)/C(C)=C/C2CC)OC1(C)C (centres unmarked) [OP-1417]
[1]
  fold increased in MIC relative to tiacumicn B: 2-4x

## CCc1c(Cl)c(O)c(Cl)c(O)c1C(=O)OC1C(C)OC(OC/C2=C\C=C\CC(O)/C(C)=C/C(CC)C(OC3OC(C)(C)C(OC(=O)C(C)C)C(O)C3O)/C(C)=C/C(C)=C/CC(C(C)=O)OC2=O)C(OC)C1O (centres unmarked) [OP-1402]
[1]
  fold increased in MIC relative to tiacumicn B: 2-4x

## CCc1c(Cl)c(O)c(Cl)c(O)c1C(=O)OC1C(C)OC(OC/C2=C/C=C/CC(O)/C(C)=C/C(CC)C(OC3OC(C)(C)C(O)C(OC(=O)C(C)C)C3O)/C(C)=C/C(C)=C/CC(C(C)O)OC2=O)C(OC)C1O (centres unmarked) [OP-1431, tiacumicin F]
[1]
  fold increased in MIC relative to tiacumicn B: 8x

## CCC1CC=C(C)C=C(C)C(OC2OC(C)(C)C(OC(C)=O)C(O)C2O)C(CC)C=C(C)C(O)CC=CC=C(C)C(=O)O1 (centres unmarked) [OP-1434, tiacumicin A]
[1]
  fold increased in MIC relative to tiacumicn B: >32x
